In one experiment the target is T1, M1 muscarinic receptor (Homo sapiens, UniProt P11229).
T1 construct: expressed in transfected cells; host or cells: CHO (M1-CHO)
T1 sequence (P11229 1-460): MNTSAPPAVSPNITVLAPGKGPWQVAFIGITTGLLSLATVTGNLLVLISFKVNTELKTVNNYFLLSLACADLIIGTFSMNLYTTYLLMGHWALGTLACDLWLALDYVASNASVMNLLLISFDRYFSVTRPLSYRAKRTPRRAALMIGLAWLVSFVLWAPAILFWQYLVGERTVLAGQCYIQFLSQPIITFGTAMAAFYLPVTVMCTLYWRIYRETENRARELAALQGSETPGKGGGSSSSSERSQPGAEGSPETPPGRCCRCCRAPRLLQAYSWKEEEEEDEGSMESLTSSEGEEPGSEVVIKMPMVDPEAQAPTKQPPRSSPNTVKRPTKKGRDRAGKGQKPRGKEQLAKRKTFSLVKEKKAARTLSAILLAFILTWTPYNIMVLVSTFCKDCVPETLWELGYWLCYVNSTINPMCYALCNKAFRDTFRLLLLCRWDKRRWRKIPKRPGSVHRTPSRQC
As to the kind of experiment: Functional mobilization of intracellular calcium (FLIPR), M1-CHO cells. The format is cell-based. The settings on record: for Emax: 100% efficacy is the maximum response obtained using Carbachol as a control; for M1 Activity: M1-CHO cells, FLIPR calcium mobilization. The method in brief: (§1)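 CHO cells expressing M1 or M4, loaded with Fluo-3 AM or Calcium 3 dye with 1 mM probenecid, 0.5% DMSO final. Agonist mode: compound added directly; antagonist mode: 15 min pre-incubation (or co-application) before carbachol at EC80. Fluorescence recorded 60 s on FLIPR.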
(In general: Calcium assays in cells follow changes in intracellular calcium, usually with a dye or a luminescent sensor.)

For another experiment, the target named is T2, M4 muscarinic receptor (Homo sapiens, UniProt P08173).
T2 construct: expressed in transfected cells; host or cells: CHO (M4-CHO)
T2 sequence (P08173 1-479): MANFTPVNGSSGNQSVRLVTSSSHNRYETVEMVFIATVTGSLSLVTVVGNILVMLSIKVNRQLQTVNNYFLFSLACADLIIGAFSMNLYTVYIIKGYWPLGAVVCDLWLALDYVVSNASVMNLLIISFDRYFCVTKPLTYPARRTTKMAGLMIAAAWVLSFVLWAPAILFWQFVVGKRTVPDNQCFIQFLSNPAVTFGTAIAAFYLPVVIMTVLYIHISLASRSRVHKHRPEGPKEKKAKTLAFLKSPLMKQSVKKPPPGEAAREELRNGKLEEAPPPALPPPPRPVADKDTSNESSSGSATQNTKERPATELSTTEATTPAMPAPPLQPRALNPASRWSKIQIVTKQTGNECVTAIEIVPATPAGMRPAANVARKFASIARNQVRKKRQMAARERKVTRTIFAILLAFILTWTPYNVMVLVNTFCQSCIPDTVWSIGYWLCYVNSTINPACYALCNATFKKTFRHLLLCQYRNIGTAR
Kind of experiment: Functional mobilization of intracellular calcium (FLIPR), M4-CHO cells. The settings on record: for Emax: 100% efficacy is the maximum response obtained using Carbachol as a control; for M4 Activity: M4-CHO cells, FLIPR calcium mobilization. In kind it is cell-based. The method in brief: as §1

A value given as a limit tells only on which side of the number the result lay.

The Emax is the greatest response seen or fitted, relative to the assay's reference. As for `CCOC(=O)N1C2CCC1CC(N1CCC3(CC1)CN(S(=O)(=O)c1ccccc1Cl)Cc1ccccc13)C2` (stereo not drawn) [compound 69], at M1 muscarinic receptor, the Emax fell in the range of 25 to 100% and the “M1 Activity” value is on record as “+++ (activity was measured to be less than 1.0 μM)”. Moreover, on M4 muscarinic receptor, the maximal effect (Emax) is 25 to 100% and the “M4 Activity” value is reported as “+++ (activity was measured to be less than 1.0 μM)”.

`CCOC(=O)N1CCC(CN2CCC3(CC2)CN(S(C)(=O)=O)Cc2ccccc23)CC1` [compound 70]: at M1 muscarinic receptor, the Emax was in the range of 25 to 100% and the “M1 Activity” value is recorded as “+++ (activity was measured to be less than 1.0 μM)”. In addition, at M4 muscarinic receptor, the maximal effect (Emax) was 25 to 100% and the “M4 Activity” value was “+++ (activity was measured to be less than 1.0 μM)”.

As to `CCOC(=O)N1C2CCC1CC(N1CCC3(CC1)CN(C(=O)c1ccc(F)cc1)Cc1ccccc13)C2` (stereo not drawn) [compound 71], at M1 muscarinic receptor, the Emax was in the range of 25 to 100% and the “M1 Activity” value was “+++ (activity was measured to be less than 1.0 μM)”. Also, on M4 muscarinic receptor, the maximal effect (Emax) was < 25% and the “M4 Activity” value was “+ (activity was measured to be greater than 5.0 μM)”.

As for `CCOC(=O)N1CCC(CN2CCC3(CC2)CN(C(=O)Oc2ccc(F)cc2)Cc2ccccc23)CC1` [compound 72], at M1 muscarinic receptor, the maximum response (Emax) lay in the range of 25 to 100% and the “M1 Activity” value is listed as “+++ (activity was measured to be less than 1.0 μM)”. Moreover, at M4 muscarinic receptor, the Emax was in the range of 25 to 100% and the “M4 Activity” value is recorded as “+++ (activity was measured to be less than 1.0 μM)”.

Take `CCOC(=O)N1C2CCC1CC(N1CCC3(CC1)CN(C(=O)OCCOC)Cc1ccccc13)C2` (stereo not drawn) [compound 73]: on M1 muscarinic receptor, the Emax is 25 to 100% and the “M1 Activity” value is reported as “+++ (activity was measured to be less than 1.0 μM)”. Further, at M4 muscarinic receptor, the Emax was in the range of 25 to 100% and the “M4 Activity” value was “+++ (activity was measured to be less than 1.0 μM)”.

For the compound `COC(=O)N1CCC(CN2CCC3(CC2)CN(C(C)=O)Cc2ccccc23)CC1` [compound 74], on M1 muscarinic receptor, the Emax fell in the range of 25 to 100% and the “M1 Activity” value is given as “+++ (activity was measured to be less than 1.0 μM)”. For the same compound, at M4 muscarinic receptor, the maximum response (Emax) lay within 25 to 100% and the “M4 Activity” value is “+++ (activity was measured to be less than 1.0 μM)”.

As for `CC(=O)CN1CCC2(CC1)CN(C(C)=O)Cc1ccccc12` [compound 78], at M1 muscarinic receptor, the Emax fell in the range of 25 to 100% and the “M1 Activity” value was “+ (activity was measured to be greater than 5.0 μM)”. Also, at M4 muscarinic receptor, the Emax was 25 to 100% and the “M4 Activity” value is “+ (activity was measured to be greater than 5.0 μM)”.

For `CCOC(=O)N1CCC(CN2CCC3(CC2)CN(C(=O)c2cc4ccccc4s2)Cc2ccccc23)CC1` [compound 80], at M1 muscarinic receptor, the Emax lay in the range of 25 to 100% and the “M1 Activity” value is listed as “+++ (activity was measured to be less than 1.0 μM)”. For the same compound, at M4 muscarinic receptor, the maximum response (Emax) lay in the range of 25 to 100% and the “M4 Activity” value is listed as “+++ (activity was measured to be less than 1.0 μM)”.

For the compound `CCOC(=O)N1CCC(N2CCC3(CC2)CN(C(=O)Nc2c(C)noc2C)Cc2ccccc23)CC1` [compound 84], at M1 muscarinic receptor, the maximum response (Emax) fell in the range of 25 to 100% and the “M1 Activity” value was “+++ (activity was measured to be less than 1.0 μM)”. Moreover, at M4 muscarinic receptor, the Emax is < 25% and the “M4 Activity” value is “+++ (activity was measured to be less than 1.0 μM)”.

Take `CCOC(=O)N1CCC(N2CCC3(CC2)CN(CC2CCCCC2)Cc2ccccc23)CC1` [compound 87]: on M1 muscarinic receptor, the Emax lay within 25 to 100% and the “M1 Activity” value is listed as “++ (activity was measured to be from 1.0 μM to 5.0 μM)”. Moreover, at M4 muscarinic receptor, the Emax is < 25% and the “M4 Activity” value is “++ (activity was measured to be from 1.0 μM to 5.0 μM)”.

As for `CC(=O)N1Cc2ccccc2C2(CCN(C3CCN(C(=O)OC(C)C)CC3)CC2)C1` [compound 88], at M1 muscarinic receptor, the Emax fell in the range of 25 to 100% and the “M1 Activity” value is recorded as “+++ (activity was measured to be less than 1.0 μM)”. Also, on M4 muscarinic receptor, the Emax lay within 25 to 100% and the “M4 Activity” value was “+++ (activity was measured to be less than 1.0 μM)”.

For `COCCN1CCC2(CC1)CN(C(C)=O)Cc1ccccc12` [compound 89], at M1 muscarinic receptor, the Emax was < 25% and the “M1 Activity” value was “+ (activity was measured to be greater than 5.0 μM)”. On M4 muscarinic receptor, the Emax is < 25% and the “M4 Activity” value is “+ (activity was measured to be greater than 5.0 μM)”.

As for `COCCOC(=O)N1C2CCC1CC(N1CCC3(CC1)CN(C(C)=O)Cc1ccccc13)C2` (stereo not drawn) [compound 90], on M1 muscarinic receptor, the maximal effect (Emax) was 25 to 100% and the “M1 Activity” value is recorded as “+++ (activity was measured to be less than 1.0 μM)”. Also, on M4 muscarinic receptor, the Emax fell in the range of 25 to 100% and the “M4 Activity” value is on record as “+++ (activity was measured to be less than 1.0 μM)”.

Regarding `CCNC(=O)N1Cc2ccccc2C2(CCN(CC3CCN(C(=O)OCC)CC3)CC2)C1` [compound 91], on M1 muscarinic receptor, the maximal effect (Emax) was in the range of 25 to 100% and the “M1 Activity” value is given as “+++ (activity was measured to be less than 1.0 μM)”. Also, at M4 muscarinic receptor, the Emax was 25 to 100% and the “M4 Activity” value is recorded as “+++ (activity was measured to be less than 1.0 μM)”.

In the case of `CCOC(=O)N1C2CCC1CC(N1CCC3(CC1)CN(C(=O)c1cnn(-c4ccccc4)c1C(F)(F)F)Cc1ccccc13)C2` (stereo not drawn) [compound 92], at M1 muscarinic receptor, the Emax lay in the range of 25 to 100% and the “M1 Activity” value was “++ (activity was measured to be from 1.0 μM to 5.0 μM)”. For the same compound, on M4 muscarinic receptor, the maximal effect (Emax) fell in the range of 25 to 100% and the “M4 Activity” value is “++ (activity was measured to be from 1.0 μM to 5.0 μM)”.

For the compound `CC(=O)N1Cc2ccccc2C2(CCN(C3CCC4(CC3)OCCO4)CC2)C1` [compound 93], at M1 muscarinic receptor, the Emax fell in the range of 25 to 100% and the “M1 Activity” value is reported as “+ (activity was measured to be greater than 5.0 μM)”. Also, at M4 muscarinic receptor, the maximal effect (Emax) is < 25% and the “M4 Activity” value was “+ (activity was measured to be greater than 5.0 μM)”.

As for `CC(=O)N1Cc2ccccc2C2(CCN(CC3CC4CCC3CC4)CC2)C1` (stereo not drawn) [compound 94], at M1 muscarinic receptor, the maximum response (Emax) fell in the range of 25 to 100% and the “M1 Activity” value is given as “++ (activity was measured to be from 1.0 μM to 5.0 μM)”. In addition, on M4 muscarinic receptor, the maximal effect (Emax) was in the range of 25 to 100% and the “M4 Activity” value is “+++ (activity was measured to be less than 1.0 μM)”.

Regarding `O=C(OC1CCC1)N1Cc2ccccc2C2(CCN(C3CC4CCC(C3)N4C(=O)O[C@H]3CCOC3)CC2)C1` (stereo partly drawn) [compound 95], on M1 muscarinic receptor, the maximal response (Emax) lay within 25 to 100% and the “M1 Activity” value was “+++ (activity was measured to be less than 1.0 μM)”. Besides, at M4 muscarinic receptor, the Emax lay in the range of 25 to 100% and the “M4 Activity” value is reported as “+++ (activity was measured to be less than 1.0 μM)”.

In the case of `COCCOC(=O)N1Cc2ccccc2C2(CCN(C3CC4CCC(C3)N4C(=O)OCCOC)CC2)C1` (stereo not drawn) [compound 96], at M1 muscarinic receptor, the Emax is 25 to 100% and the “M1 Activity” value is reported as “+++ (activity was measured to be less than 1.0 μM)”. For the same compound, at M4 muscarinic receptor, the Emax was in the range of 25 to 100% and the “M4 Activity” value was “+++ (activity was measured to be less than 1.0 μM)”.

With `CC(=O)N1Cc2ccccc2C2(CCN(Cc3nccs3)CC2)C1` [compound 98], at M1 muscarinic receptor, the Emax was < 25% and the “M1 Activity” value was “+ (activity was measured to be greater than 5.0 μM)”. Also, at M4 muscarinic receptor, the maximum response (Emax) is < 25% and the “M4 Activity” value is “+ (activity was measured to be greater than 5.0 μM)”.

Take `CCCOC(=O)N1Cc2ccccc2C2(CCN(C3CC4CCC(C3)N4C(=O)OCC)CC2)C1` (stereo not drawn) [compound 99]: on M1 muscarinic receptor, the maximal effect (Emax) was 25 to 100% and the “M1 Activity” value is listed as “+++ (activity was measured to be less than 1.0 μM)”. On M4 muscarinic receptor, the Emax fell in the range of 25 to 100% and the “M4 Activity” value is on record as “+++ (activity was measured to be less than 1.0 μM)”.

The values are drawn from patent publication US7863449B2, “Modulators of muscarinic receptors” (Vertex Pharmaceuticals Incorporated, priority 2004, dated 2011).
